The values below come from US20050282743A1, “Molecular interactions in cells” (Arbor Vita Corporation, priority 2001, published 2005).

Holding throughout (assay type): binding
Experiment [1] concerns the target T1, PDZ protein (GST-PDZ fusion) (Homo sapiens, UniProt Q9Y6N9).
T1 construct: made in house; host or cells: E. coli (DH5alpha, BL21 or JM109)
Briefly: G' assay (10 uM PL peptide), results of TABLE 7 and TABLE 12. The following applies: PDZ PDZ-73, PDZ Domain 2. Put shortly: (§1)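 Binding classes derive from A450 nm of bound biotin-tagged PL peptide. A score of 5 needs A450 above 4 in more than two repeats.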

Experiment [2] concerns the target T2, PDZ protein (GST-PDZ fusion) (Homo sapiens, UniProt Q9UQ26).
T2 construct: made in house; host or cells: E. coli (DH5alpha, BL21 or JM109)
T2 sequence (Q9UQ26 1-1411): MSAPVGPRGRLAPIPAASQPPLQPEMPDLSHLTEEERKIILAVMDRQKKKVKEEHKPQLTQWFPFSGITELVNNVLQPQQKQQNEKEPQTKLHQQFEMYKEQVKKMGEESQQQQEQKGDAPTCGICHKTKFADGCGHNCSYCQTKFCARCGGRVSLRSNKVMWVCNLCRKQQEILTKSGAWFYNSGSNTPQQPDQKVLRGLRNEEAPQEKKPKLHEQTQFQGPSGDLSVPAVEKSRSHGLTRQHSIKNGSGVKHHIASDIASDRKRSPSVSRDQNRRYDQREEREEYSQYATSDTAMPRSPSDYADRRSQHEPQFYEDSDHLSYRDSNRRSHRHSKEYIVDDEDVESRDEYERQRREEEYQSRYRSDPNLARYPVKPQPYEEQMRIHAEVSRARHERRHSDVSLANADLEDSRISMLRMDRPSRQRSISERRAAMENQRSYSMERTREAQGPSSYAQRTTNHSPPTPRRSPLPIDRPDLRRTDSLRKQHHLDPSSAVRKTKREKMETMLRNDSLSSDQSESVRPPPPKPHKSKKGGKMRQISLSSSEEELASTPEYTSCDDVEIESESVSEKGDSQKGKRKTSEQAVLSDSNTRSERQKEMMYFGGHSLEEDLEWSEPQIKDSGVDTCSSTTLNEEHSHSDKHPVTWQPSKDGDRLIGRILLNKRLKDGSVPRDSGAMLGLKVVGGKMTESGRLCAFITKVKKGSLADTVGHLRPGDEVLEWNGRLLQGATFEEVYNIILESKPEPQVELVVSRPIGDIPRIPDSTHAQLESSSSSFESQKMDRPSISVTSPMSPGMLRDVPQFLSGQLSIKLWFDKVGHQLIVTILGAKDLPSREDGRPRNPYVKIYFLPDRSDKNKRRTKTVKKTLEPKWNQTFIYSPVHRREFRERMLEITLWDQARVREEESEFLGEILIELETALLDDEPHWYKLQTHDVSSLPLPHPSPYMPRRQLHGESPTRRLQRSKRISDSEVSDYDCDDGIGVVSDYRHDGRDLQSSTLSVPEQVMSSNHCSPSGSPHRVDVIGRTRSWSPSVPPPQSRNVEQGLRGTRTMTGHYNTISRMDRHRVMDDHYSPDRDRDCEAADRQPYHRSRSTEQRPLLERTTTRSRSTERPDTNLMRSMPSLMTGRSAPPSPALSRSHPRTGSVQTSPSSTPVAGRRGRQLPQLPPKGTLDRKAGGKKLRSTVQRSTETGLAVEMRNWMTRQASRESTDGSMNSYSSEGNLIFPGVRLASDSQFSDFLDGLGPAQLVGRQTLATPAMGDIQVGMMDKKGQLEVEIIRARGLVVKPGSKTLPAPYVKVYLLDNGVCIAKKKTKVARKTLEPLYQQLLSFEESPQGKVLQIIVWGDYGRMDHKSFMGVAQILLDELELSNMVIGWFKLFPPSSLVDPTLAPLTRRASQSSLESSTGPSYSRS
The experiment is described as above. To be noted: PDZ KIAA0751(L), PDZ Domain 1. A digest of the protocol:
as §1

Another experiment deals with T3, TIP1 (PDZ Domain 1) (Homo sapiens, UniProt O14907).
T3 construct: made in house; host or cells: E. coli (DH5alpha, BL21 or JM109)
The experiment in a line: G' assay and Kd titration, TABLE 12. The following applies: A450 nm class of biotinylated PL peptide bound; 0 in conc columns = peptide 10 uM, protein 5 ug/ml. How it is done:
The third column labeled “Peptide Optimal Concentration” in the tables is a number reflective of the binding interaction between the PL protein and PDZ protein. […] The column labeled “Protein Optimal Concentration” refers to the protein concentration used to assay PL interaction (in ug/ml); a ‘0’ is indicative of 5 ug/ml protein concentration; any other value represents the concentration (in ug/ml) used to determine the dissociation constant for a given interaction.
Finally, the seventh column labeled “Classification” is another measure of the level of binding. In particular, it provides an absorbance value at 450 nm which indicates the amount of PL peptide bound to the PDZ protein. […]
For convenience, the assay conditions described in this section are referred to as the “G′ assay” and the “G″ assay,” with the specific conditions described in the preceding section on G assays being referred to as the “G^0 assay.” The “G′ assay” is identical to the “G^0 assay” except at step (2) the peptide concentration is 10 uM instead of 20 uM. […] Correspondingly, it slightly increases the certainty that detected interactions are of sufficient affinity and half-life to be of biological importance and useful therapeutic targets.

The target in experiment [3] is T4, PDZ protein (GST-PDZ fusion) (Homo sapiens, UniProt O60307).
T4 construct: made in house; host or cells: E. coli (DH5alpha, BL21 or JM109)
Briefly: G' assay (10 uM PL peptide), results of TABLE 7 and TABLE 12. The following applies: PDZ KIAA0561, PDZ Domain 1. A digest of the protocol:
as §1

Ends that are not written are not given here. Peptide text beside a SMILES is read from it. * marks the point of attachment. Biotin = O=C1N[C@H]2[C@H](CS[C@H]2CCCCC(=O)*)N1

T4 sequence (O60307 whole entry, the tested form may be a part): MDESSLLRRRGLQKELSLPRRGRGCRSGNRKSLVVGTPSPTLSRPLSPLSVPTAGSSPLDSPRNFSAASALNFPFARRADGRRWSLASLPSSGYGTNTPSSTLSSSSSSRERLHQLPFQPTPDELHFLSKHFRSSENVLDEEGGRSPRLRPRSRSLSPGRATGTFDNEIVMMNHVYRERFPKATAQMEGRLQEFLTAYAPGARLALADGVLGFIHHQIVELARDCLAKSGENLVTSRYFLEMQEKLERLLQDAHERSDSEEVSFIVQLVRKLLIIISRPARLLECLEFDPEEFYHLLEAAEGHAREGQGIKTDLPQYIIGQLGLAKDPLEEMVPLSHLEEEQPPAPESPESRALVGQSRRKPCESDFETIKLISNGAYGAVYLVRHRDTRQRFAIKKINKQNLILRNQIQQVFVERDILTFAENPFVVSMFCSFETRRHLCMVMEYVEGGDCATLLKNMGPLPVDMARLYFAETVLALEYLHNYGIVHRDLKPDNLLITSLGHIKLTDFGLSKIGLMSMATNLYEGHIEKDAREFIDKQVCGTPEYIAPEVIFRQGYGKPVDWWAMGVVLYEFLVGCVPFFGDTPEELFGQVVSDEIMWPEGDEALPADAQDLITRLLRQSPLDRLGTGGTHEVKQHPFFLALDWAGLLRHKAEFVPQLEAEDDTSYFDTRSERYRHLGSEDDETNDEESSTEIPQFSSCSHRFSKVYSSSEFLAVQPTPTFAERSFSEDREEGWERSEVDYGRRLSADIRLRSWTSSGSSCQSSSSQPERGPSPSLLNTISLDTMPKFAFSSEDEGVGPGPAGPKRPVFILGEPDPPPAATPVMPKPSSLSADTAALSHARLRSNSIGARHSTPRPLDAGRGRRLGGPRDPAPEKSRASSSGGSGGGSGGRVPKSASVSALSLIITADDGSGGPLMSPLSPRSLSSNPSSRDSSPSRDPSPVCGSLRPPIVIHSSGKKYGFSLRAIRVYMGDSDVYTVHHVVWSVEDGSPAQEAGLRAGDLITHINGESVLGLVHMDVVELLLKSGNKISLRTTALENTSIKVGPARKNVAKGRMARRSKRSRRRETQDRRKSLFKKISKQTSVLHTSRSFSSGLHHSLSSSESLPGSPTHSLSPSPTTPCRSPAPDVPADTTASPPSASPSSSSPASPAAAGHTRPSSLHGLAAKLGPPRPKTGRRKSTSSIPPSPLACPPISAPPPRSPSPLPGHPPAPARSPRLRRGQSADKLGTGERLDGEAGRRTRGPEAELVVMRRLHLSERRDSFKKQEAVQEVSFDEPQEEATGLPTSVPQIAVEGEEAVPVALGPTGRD
T3 sequence (O14907 14-116): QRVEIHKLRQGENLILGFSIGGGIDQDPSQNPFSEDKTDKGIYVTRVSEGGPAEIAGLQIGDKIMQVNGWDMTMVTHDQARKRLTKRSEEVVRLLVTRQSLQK
T1 sequence (Q9Y6N9 whole entry, the tested form may be a part): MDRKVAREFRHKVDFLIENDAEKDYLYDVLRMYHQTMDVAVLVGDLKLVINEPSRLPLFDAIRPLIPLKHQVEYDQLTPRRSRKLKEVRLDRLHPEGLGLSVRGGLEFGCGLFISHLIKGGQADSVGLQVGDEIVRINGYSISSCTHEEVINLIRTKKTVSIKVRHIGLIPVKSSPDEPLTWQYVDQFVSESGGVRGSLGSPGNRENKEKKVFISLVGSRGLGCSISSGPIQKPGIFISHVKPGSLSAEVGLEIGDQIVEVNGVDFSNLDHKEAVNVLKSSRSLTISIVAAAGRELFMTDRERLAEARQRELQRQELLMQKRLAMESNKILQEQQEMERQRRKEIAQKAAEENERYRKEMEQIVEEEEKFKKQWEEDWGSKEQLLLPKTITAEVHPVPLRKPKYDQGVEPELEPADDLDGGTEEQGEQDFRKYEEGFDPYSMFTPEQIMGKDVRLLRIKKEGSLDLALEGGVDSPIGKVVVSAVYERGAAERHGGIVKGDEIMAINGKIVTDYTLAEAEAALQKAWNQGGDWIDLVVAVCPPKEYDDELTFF

Take `CSCC[C@H](NC(=O)[C@H](C)NC(=O)[C@H](CCCNC(=N)N)NC(=O)CNC(=O)[C@@H](NC(=O)[C@H](Cc1c[nH]c2ccccc12)NC(=O)[C@H](CCCNC(=N)N)NC(=O)CNC(=O)CCCC[C@@H]1SC[C@@H]2NC(=O)N[C@@H]21)[C@@H](C)O)C(=O)N[C@@H](CO)C(=O)N[C@@H](C)C(=O)N[C@@H](Cc1c[nH]c2ccccc12)C(=O)N[C@@H](CCCCN)C(=O)N1CCC[C@H]1C(=O)N[C@H](C(=O)N[C@@H](CCCNC(=N)N)C(=O)N[C@@H](CCCNC(=N)N)C(=O)N[C@@H](CCC(=O)O)C(=O)N[C@H](C(=O)N[C@@H](CCC(=O)O)C(=O)N[C@H](C(=O)O)C(C)C)[C@@H](C)O)[C@@H](C)O` [HPV E6 #35 (modified)] (Biotin-GRWTGRAMSAWKPTRRETEV-OH; C-terminus assumed): the Classification in experiment [1] (PL peptide 10 uM) is reported as 2 (A450 nm 1-2).

For the molecule `CC[C@H](C)[C@H](NC(=O)CNC(=O)[C@H](CO)NC(=O)[C@H](Cc1ccccc1)NC(=O)[C@@H](NC(=O)[C@H](CS)NC(=O)CNC(=O)CNC(=O)[C@H](C)NC(=O)[C@@H]1CCCN1C(=O)[C@@H](NC(=O)[C@@H]1CCCN1C(=O)CCCC[C@@H]1SC[C@@H]2NC(=O)N[C@@H]21)[C@@H](C)CC)[C@@H](C)O)C(=O)N[C@@H](Cc1ccccc1)C(=O)N1CCC[C@H]1C(=O)N[C@H](C(=O)N[C@@H](CC(C)C)C(=O)N[C@H](C(=O)N[C@@H](CO)C(=O)N1CCC[C@H]1C(=O)N[C@@H](CC(C)C)C(=O)O)[C@@H](C)O)[C@@H](C)O` [KIA 1481] (Biotin-PIPAGGCTFSGIFPTLTSPL-OH; C-terminus assumed), the Classification in experiment [1] was 1 (A450 nm 0-1).

On to “A2AA_HUMAN (modified) (Biotin-HDFRRAFKKILARGDRKRIV; not fully specified)”, for which the Classification in experiment [2] is listed as 3 (A450 nm 2-3).

In the case of `CC(C)C[C@H](NC(=O)[C@H](C)NC(=O)[C@@H](NC(=O)[C@@H](NC(=O)[C@H](Cc1c[nH]cn1)NC(=O)[C@H](CC(C)C)NC(=O)CNC(=O)[C@H](CCC(N)=O)NC(=O)CNC(=O)CNC(=O)[C@H](C)NC(=O)[C@H](C)NC(=O)[C@H](CCCNC(=N)N)NC(=O)[C@H](C)NC(=O)[C@H](CO)NC(=O)[C@H](CC(=O)O)NC(=O)[C@H](CC(=O)O)NC(=O)[C@H](Cc1c[nH]c2ccccc12)NC(=O)[C@H](C)NC(=O)CCCC[C@@H]1SC[C@@H]2NC(=O)N[C@@H]21)C(C)C)[C@@H](C)O)C(=O)O` [LPAP] (Biotin-AWDDSARAAGGQGLHVTAL-OH; C-terminus assumed), the Classification at TIP1 (PDZ Domain 1) was 5 (A450 nm of 4 more than 2× repeated).

Consider `CC[C@H](C)[C@H](NC(=O)[C@H](Cc1ccc(O)cc1)NC(=O)[C@H](CC(C)C)NC(=O)[C@H](CCC(N)=O)NC(=O)[C@H](Cc1c[nH]cn1)NC(=O)[C@H](CO)NC(=O)[C@H](C)NC(=O)[C@H](CC(C)C)NC(=O)[C@@H](NC(=O)[C@H](CC(=O)O)NC(=O)[C@H](CCSC)NC(=O)[C@H](Cc1ccccc1)NC(=O)[C@@H]1CCCN1C(=O)[C@H](CCCNC(=N)N)NC(=O)[C@@H](NC(=O)[C@H](CC(C)C)NC(=O)[C@H](CC(N)=O)NC(=O)[C@H](CC(=O)O)NC(=O)[C@@H](NC(=O)[C@H](CO)NC(=O)CCCC[C@@H]1SC[C@@H]2NC(=O)N[C@@H]21)[C@@H](C)O)C(C)C)[C@@H](C)O)C(=O)O` [presenilin-2] (Biotin-STDNLVRPFMDTLASHQLYI-OH; C-terminus assumed), for which the Classification in experiment [3] and in experiment [2] was 1 (A450 nm 0-1) throughout.

`CC[C@H](C)[C@H](NC(=O)[C@H](CCC(N)=O)NC(=O)CCCC[C@@H]1SC[C@@H]2NC(=O)N[C@@H]21)C(=O)N[C@@H](CO)C(=O)N1CCC[C@H]1C(=O)NCC(=O)NCC(=O)N[C@@H](CC(C)C)C(=O)N[C@@H](CCC(=O)O)C(=O)N1CCC[C@H]1C(=O)N1CCC[C@H]1C(=O)N[C@@H](CO)C(=O)N[C@@H](CCC(=O)O)C(=O)N[C@@H](CCCCN)C(=O)N[C@@H](Cc1c[nH]cn1)C(=O)N[C@@H](Cc1ccccc1)C(=O)N[C@@H](CCCNC(=N)N)C(=O)N[C@@H](CCC(=O)O)C(=O)N[C@H](C(=O)N[C@@H](CCC(=O)O)C(=O)N[C@H](C(=O)O)C(C)C)[C@@H](C)O` [Tax]: the Classification on TIP1 (PDZ Domain 1) is listed as 5 (A450 nm of 4 more than 2× repeated).

“KTMPAATYRLLTGQEQPVYL (Biotin-KTMPAATYRLLTGQEQPVYL) [MINT-3]”: in experiment [3], the Classification is reported as 1 (A450 nm 0-1).
